The target in experiment [1] is HCV NS3/4A protease complex (Hepatitis C virus genotype 1a, UniProt P27958, C1454S/C1711G). The experiment is described as follows: Recombinant HCV NS3/4A protease complex FRET peptide assay (strain not stated). Particulars: strain not stated, activity ranges. The class given is biochemical.
Experiment [2] concerns HCV replicon in Huh7 cells. The experiment is described as follows: HCV replicon cell-based assay. Also noted: species or system HCV strain 1B. As to conditions: HCV replicon, Huh7 cells, 4 days, activity ranges, read-out: EC50. In a few lines:
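Genotype 1b subgenomic replicon Huh7 cells exposed to compound 4 days at 37° C in 4% FCS, 0.5% DMSO medium. EC50 from TaqMan RT-PCR of HCV RNA, normalized to total RNA by RiboGreen; CC50 from alamar Blue fluorescence after 4 h.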
On the technique in general: A replicon is a self-replicating genome or part of one, used to study replication in cells.

Setting [3] is: IC50, NS3/4A protease enzyme assay.

Read-outs that look alike come from different tables or passages of the source.

Sequence of HCV NS3/4A protease complex (P27958 1027-1711, stated change not applied): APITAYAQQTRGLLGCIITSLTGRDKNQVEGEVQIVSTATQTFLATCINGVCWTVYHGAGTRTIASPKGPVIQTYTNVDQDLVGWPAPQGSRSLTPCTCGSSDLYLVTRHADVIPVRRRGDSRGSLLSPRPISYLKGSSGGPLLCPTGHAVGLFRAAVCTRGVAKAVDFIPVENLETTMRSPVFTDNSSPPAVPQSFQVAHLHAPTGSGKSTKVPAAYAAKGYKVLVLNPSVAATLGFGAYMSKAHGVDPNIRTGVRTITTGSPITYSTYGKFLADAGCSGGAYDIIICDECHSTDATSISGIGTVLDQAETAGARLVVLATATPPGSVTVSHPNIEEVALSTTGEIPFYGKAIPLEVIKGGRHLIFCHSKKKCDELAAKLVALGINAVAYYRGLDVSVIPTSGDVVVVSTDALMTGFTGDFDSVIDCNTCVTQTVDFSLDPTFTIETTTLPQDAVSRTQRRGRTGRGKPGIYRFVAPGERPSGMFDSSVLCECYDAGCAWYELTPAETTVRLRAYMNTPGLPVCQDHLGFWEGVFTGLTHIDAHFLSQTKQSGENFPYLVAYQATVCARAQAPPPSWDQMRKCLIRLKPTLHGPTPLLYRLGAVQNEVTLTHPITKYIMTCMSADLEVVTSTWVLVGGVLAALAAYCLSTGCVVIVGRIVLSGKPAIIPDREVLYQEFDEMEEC
Sequence of HCV NS3/4A protease complex (P27958 1027-1711, stated change not applied): as above

In the case of `C=CC1C[C@]1(NC(=O)[C@@H]1C[C@@H](Oc2cc(-c3ccccc3)nc3cc(OC)ccc23)CN1C(=O)[C@@H](NC(=O)OC(C)(C)C)C(C)(C)C)C(=O)NS(=O)(=O)CC1CCC1` (stereo in doubt) [Compound 15, {1-[2-(1-Cyclobutylmethanesulfonylaminocarbonyl-2-vinylcyclopropylcarbamoyl)-4-(7-methoxy-2-phenylquinolin-4-yloxy)pyrrolidine-1-carbonyl]-2,2-dimethylpropyl}-carbamic acid tert-butyl ester], the IC50 (commonly the concentration needed to halve the response being measured) in experiment [1] (setting [3]) is less than 500 nM. For the same molecule, in experiment [2] (Hepatitis C virus, Huh-7, 96 h), the concentration giving a half-maximal response (EC50) (commonly the concentration at which the effect is half-maximal) was less than 5000 nM.

Consider `C=CC1C[C@]1(NC(=O)[C@@H]1C[C@@H](Oc2cc(-c3ccccc3)nc3cc(OC)ccc23)CN1C(=O)C(NC(=O)OC(C)(C)C)C(C)(C)C)C(=O)NS(=O)(=O)c1ccc(OC)cc1` (stereo partly drawn) [Compound 59], for which the IC50 in experiment [1] (setting [3]) was less than 50 nM. Moreover, the EC50 in experiment [2] (Hepatitis C virus, Huh-7, 96 h) was less than 50 nM.

For `C=CC1C[C@]1(NC(=O)[C@@H]1C[C@@H](Oc2cc(-c3ccccc3)nc3cc(OC)ccc23)CN1C(=O)C(NC(=O)OC(C)(C)C)C(C)(C)C)C(=O)NS(=O)(=O)c1ccccc1C(=O)OC` (stereo partly drawn) [Compound 57], the concentration for half-maximal inhibition (IC50) in experiment [1] (setting [3]) was less than 500 nM. Also, the EC50 in experiment [2] (Hepatitis C virus, Huh-7, 96 h) was less than 500 nM.

Regarding `C=CC1C[C@]1(NC(=O)[C@@H]1C[C@@H](Oc2cc(-c3ccccc3)nc3cc(OC)ccc23)CN1C(=O)[C@@H](NC(=O)OC(C)(C)C)C(C)(C)C)C(=O)NS(=O)(=O)C1CCC1` (stereo in doubt) [Compound 11, {1-[2-(1-Cyclobutanesulfonylaminocarbonyl-2-vinylcyclo-propylcarbamoyl)-4-(7-methoxy-2-phenylquinolin-4-yloxy)-pyrrolidine-1-carbonyl]-2,2-dimethylpropyl}carbamic acid tert-butyl ester], in experiment [1] (setting [3]), the IC50 was less than 50 nM. Further, the EC50 in experiment [2] (Hepatitis C virus, Huh-7, 96 h) is less than 50 nM.

`C=CC1C[C@]1(NC(=O)[C@@H]1C[C@@H](Oc2cc(-c3ccccc3)nc3cc(OC)ccc23)CN1C(=O)[C@@H](NC(=O)OC(C)(C)C)C(C)(C)C)C(=O)NS(=O)(=O)C1CC1` (stereo in doubt) [Compound 10, {1-[2-(1-Cyclopropanesulfonylaminocarbonyl-2-vinylcyclopropylcarbamoyl)-4-(7-methoxy-2-phenylquinolin-4-yloxy)-pyrrolidine-1-carbonyl]-2,2-dimethylpropyl}carbamic acid tert-butyl ester]: the 50% inhibitory concentration (IC50) in experiment [1] (setting [3]) is less than 50 nM. The concentration giving a half-maximal response (EC50) in experiment [2] (Hepatitis C virus, Huh-7, 96 h) was less than 50 nM.

With `C=C1C[C@]1(NC(=O)[C@@H]1C[C@@H](Oc2cc(-c3ccccc3)nc3cc(OC)ccc23)CN1C(=O)C(NC(=O)OC(C)(C)C)C(C)(C)C)C(=O)NS(=O)(=O)c1ccc(F)cc1` (stereo partly drawn) [Compound 49], in experiment [1] (setting [3]), the IC50 is less than 50 nM. For the same molecule, the half-maximal effective concentration (EC50) in experiment [2] (Hepatitis C virus, Huh-7, 96 h) was less than 500 nM.

Turning to `C=C[C@@H]1C[C@]1(NC(=O)C1CC(Oc2cc(-c3ccccc3)nc3cc(OC)ccc23)CN1C(=O)[C@@H](NS(=O)(=O)C1CC1)C(C)(C)C)C(=O)NS(=O)(=O)C1CC1` (stereo partly drawn) [Compound 118, 1-(2S-cyclopropanesulfonylamino-3,3-dimethyl-butyryl)-4R-(7-methoxy-2-phenyl-quinolin-4-yloxy)-pyrrolidine-2S-carboxylic acid (1R-cyclopropanesulfonylamino-carbonyl-2S-vinyl-cyclopropyl)-amide], the concentration for half-maximal inhibition (IC50) in experiment [1] (setting [3]) was less than 50 nM. The EC50 in experiment [2] (Hepatitis C virus, Huh-7, 96 h) was less than 500 nM.

In the case of `C=CC1C[C@]1(NC(=O)[C@@H]1C[C@@H](Oc2cc(-c3ccccc3)nc3cc(OC)ccc23)CN1C(=O)[C@@H](NC(=O)OC(C)(C)C)C1CCCC1)C(=O)NS(=O)(=O)C1CC1` (stereo partly drawn) [Compound 29], the 50% inhibitory concentration (IC50) in experiment [1] (setting [3]) is less than 50 nM. In addition, in experiment [2] (Hepatitis C virus, Huh-7, 96 h), the half-maximal effective concentration (EC50) is less than 50 nM.

Regarding `CCC1C[C@]1(NC(=O)[C@@H]1C[C@@H](Oc2cc(-c3ccccc3)nc3cc(OC)ccc23)CN1C(=O)[C@@H](NC(=O)OC(C)(C)C)C(C)C)C(=O)NS(=O)(=O)C1CC1` (stereo in doubt) [Compound 3, {1-[2-(1-cyclopropanesulfonylaminocarbonyl-2-ethylcyclopropylcarbamoyl)-4-(7-methoxy-2-phenylquinolin-4-yloxy)pyrrolidine-1-carbonyl]-2-methylpropyl}carbamic acid tert-butyl ester], the concentration for half-maximal inhibition (IC50) in experiment [1] (setting [3]) was less than 50 nM. Moreover, in experiment [2] (Hepatitis C virus, Huh-7, 96 h), the half-maximal effective concentration (EC50) is less than 50 nM.

In the case of `C=C[C@@H]1C[C@]1(NC(=O)C1CC(Oc2cc(-c3ccccc3)nc3cc(OC)ccc23)CN1C(=O)[C@@H](NC(=O)CCl)C(C)(C)C)C(=O)NS(=O)(=O)C1CC1` (stereo partly drawn) [Compound 120, 1-[2S-(2-chloro-acetylamino)-3,3-dimethyl-butyryl]-4R-(7-methoxy-2-phenyl-quinolin-4-yloxy)-pyrrolidine-2S-carboxylic acid (1R-cyclopropanesulfonylaminocarbonyl-2S-vinylcyclopropyl)-amide], the half-maximal inhibitory concentration (IC50) in experiment [1] (setting [3]) was less than 50 nM. The half-maximal effective concentration (EC50) in experiment [2] (Hepatitis C virus, Huh-7, 96 h) was less than 50 nM.

On to `C=C[C@@H]1C[C@]1(NC(=O)C1CC(Oc2cc(-c3ccccc3)nc3cc(OC)ccc23)CN1C(=O)[C@@H](NC(=O)OCC)C(C)(C)C)C(=O)NS(=O)(=O)C1CC1` (stereo partly drawn) [Compound 115, {1S-[2S-(1R-cyclopropanesulfonylaminocarbonyl-2S-vinyl-cyclopropylcarbamoyl)-4R-(7-methoxy-2-phenyl-quinolin-4-yloxy)-pyrrolidine-1-carbonyl]-2,2-dimethyl-propyl}-carbamic acid ethyl ester], for which, in experiment [1] (setting [3]), the IC50 was less than 50 nM. The concentration for a half-maximal effect (EC50) in experiment [2] (Hepatitis C virus, Huh-7, 96 h) is less than 50 nM.

Consider `C=C[C@@H]1C[C@]1(NC(=O)C1CC(Oc2cc(-c3ccccc3)nc3cc(OC)ccc23)CN1C(=O)[C@@H](NC(=O)C(=O)OC)C(C)(C)C)C(=O)NS(=O)(=O)C1CC1` (stereo partly drawn) [Compound 121, N-{1S-[2S-(1R-cyclopropanesulfonylaminocarbonyl-2S-vinyl-cyclopropylcarbamoyl)-4R-(7-methoxy-2-phenyl-quinolin-4-yloxy)-pyrrolidine-1-carbonyl]-2,2-dimethyl-propyl}-oxalamic acid methyl ester], for which the IC50 in experiment [1] (setting [3]) was less than 50 nM. For the same molecule, the half-maximal effective concentration (EC50) in experiment [2] (Hepatitis C virus, Huh-7, 96 h) was less than 500 nM.

On to `C=CC1C[C@]1(NC(=O)[C@@H]1C[C@@H](Oc2cc(-c3ccccc3)nc3cc(OC)ccc23)CN1C(=O)[C@@H](NC(=O)OC(C)(C)C)C(C)(C)C)C(=O)NS(=O)(=O)c1ccc(Br)cc1` (stereo partly drawn) [Compound 17], for which the half-maximal inhibitory concentration (IC50) in experiment [1] (setting [3]) was less than 500 nM. The concentration for a half-maximal effect (EC50) in experiment [2] (Hepatitis C virus, Huh-7, 96 h) is less than 500 nM.

In the case of `C=C[C@@H]1C[C@]1(NC(=O)C1C[C@@H](Oc2cc(-c3ccccc3)nc3cc(OC)ccc23)CN1C(=O)[C@@H](NC(=O)COC)C(C)(C)C)C(=O)NS(=O)(=O)C1CC1` (stereo partly drawn) [Compound 107, 1-[2S-(2-methoxy-acetylamino)-3,3-dimethyl-butyryl]-4R-(7-methoxy-2-phenyl-quinolin-4-yloxy)-pyrrolidine-2S-carboxylic acid (1R-cyclopropanesulfonylamino-carbonyl-2S-vinyl-cyclopropyl)-amide], in experiment [1] (setting [3]), the IC50 is less than 50 nM. The EC50 in experiment [2] (Hepatitis C virus, Huh-7, 96 h) is less than 500 nM.

`CCCNC(=O)N[C@H](C(=O)N1C[C@H](Oc2cc(-c3ccccc3)nc3cc(OC)ccc23)C[C@H]1C(=O)N[C@]1(C(=O)NS(=O)(=O)C2CC2)CC1CC)C(C)C` (stereo in doubt) [Compound 8, 4-(7-methoxy-2-phenylquinolin-4-yloxy)-1-[3-methyl-2-(3-propylureido)butyryl]pyrrolidine-2-carboxylic acid (1-cyclopropanesulfonylaminocarbonyl-2-ethylcyclopropyl)amide]: the IC50 in experiment [1] (setting [3]) was less than 50 nM. Also, in experiment [2] (Hepatitis C virus, Huh-7, 96 h), the concentration giving a half-maximal response (EC50) is less than 50 nM.

Take `C=CC1C[C@]1(NC(=O)[C@@H]1C[C@@H](Oc2cc(-c3ccccc3)nc3cc(OC)ccc23)CN1C(=O)[C@H](CC(C)C)NC(=O)OC(C)(C)C)C(=O)NS(=O)(=O)C(C)C` (stereo partly drawn) [Compound 34]: the 50% inhibitory concentration (IC50) in experiment [1] (setting [3]) is less than 50 nM. Moreover, the concentration for a half-maximal effect (EC50) in experiment [2] (Hepatitis C virus, Huh-7, 96 h) is less than 500 nM.

As for “1-[2S-(4-fluoro-benzenesulfonylamino)-3,3-dimethyl-butyryl]-4R-(7-methoxy-2-phenylquinolin-4-yloxy)-pyrrolidine-2S-carboxylic acid (1R-cyclopropanesulfonylaminocarbonyl -2S-vinyl-cyclopropyl)amide [Compound 119]”, in experiment [1] (NS3/4A protease enzyme assay, read-out: IC50), the IC50 was less than 50 nM. Moreover, the EC50 in experiment [2] is less than 500 nM.

As to `C=CC1C[C@]1(NC(=O)[C@@H]1C[C@@H](Oc2cc(-c3ccccc3)nc3cc(OC)ccc23)CN1C(=O)[C@@H](NC(=O)OC(C)(C)C)C(C)(C)C)C(=O)NS(=O)(=O)C1CCCCC1` (stereo in doubt) [Compound 13, {1-[2-(1-Cyclohexanesulfonylaminocarbonyl-2-vinylcyclopropylcarbamoyl)-4-(7-methoxy-2-phenylquinolin-4-yloxy)pyrrolidine-1-carbonyl]-2,2-dimethylpropyl}carbamic acid tert-butyl ester], the IC50 in experiment [1] (setting [3]) was less than 500 nM. The 50% effective concentration (EC50) in experiment [2] (Hepatitis C virus, Huh-7, 96 h) was less than 500 nM.

In the case of `C=CC1C[C@]1(NC(=O)[C@@H]1C[C@@H](Oc2cc(-c3ccccc3)nc3cc(OC)ccc23)CN1C(=O)[C@@H](NC(=O)OC(C)(C)C)C(C)(C)C)C(=O)NS(=O)(=O)CC1CC1` (stereo in doubt) [Compound 16, {1-[2-(1-Cyclopropylmethanesulfonylaminocarbonyl-2-vinylcyclopropylcarbamoyl)-4-(7-methoxy-2-phenylquinolin-4-yloxy)pyrrolidine-1-carbonyl]-2,2-dimethylpropyl}-carbamic acid tert-butyl ester], the half-maximal inhibitory concentration (IC50) in experiment [1] (setting [3]) was less than 500 nM. In addition, in experiment [2] (Hepatitis C virus, Huh-7, 96 h), the EC50 was less than 500 nM.

For the molecule `C=CCC[C@](C)(NC(=O)[C@@H]1C[C@@H](Oc2cc(-c3ccccc3)nc3cc(OC)ccc23)CN1C(=O)C(NC(=O)OC(C)(C)C)C(C)(C)C)C(=O)NS(=O)(=O)c1ccccc1Cl` (stereo partly drawn) [Compound 42], the IC50 in experiment [1] (setting [3]) is less than 50 nM. Moreover, the concentration giving a half-maximal response (EC50) in experiment [2] (Hepatitis C virus, Huh-7, 96 h) was less than 500 nM.

For the molecule `C=C1C[C@]1(NC(=O)[C@@H]1C[C@@H](Oc2cc(-c3ccccc3)nc3cc(OC)ccc23)CN1C(=O)C(NC(=O)OC(C)(C)C)C(C)(C)C)C(=O)NS(=O)(=O)c1ccccc1F` (stereo partly drawn) [Compound 54], in experiment [1] (setting [3]), the IC50 was less than 50 nM. The EC50 in experiment [2] (Hepatitis C virus, Huh-7, 96 h) is less than 500 nM.
